Measurements taken from patent US6919349B2, “Spiro compounds and adhesion molecule inhibitors containing the same as the active ingredient” (Toray Industries, Inc., priority 2000, dated 2005).

Biological target: VLA-4-IgG chimera protein (Homo sapiens, UniProt P05556+P13612)
Assay: Inhibitory effect against binding between CS-1 peptide and VLA-4-IgG chimera protein
Conditions: binding of VLA-4-IgG chimera protein to immobilized CS-1 peptide conjugate; compound pre-reacted with chimera protein 20 min; 30° C. 3 hours; absorbance 490 nm
Protocol: The inhibitory activity of the compound according to the present invention against the adhesion of VLA-4 may be determined by using an adhesion-measuring system in which the adhesion between VLA-4-expressing cells such as Ramos cells or Jurkat cells and fibronectin or fibronectin fragment such as a peptide containing CS-1 sequence (Gly Pro Glu Ile Leu Asp Val Pro Ser Thr) (hereinafter referred to as “CS-1 peptide”), immobilized on an immunoplate is measured. Alternatively, a binding-measuring system in which the adhesion between VLA-4 protein and fibronectin or fibronectin fragment such as CS-1 peptide, immobilized on an immunoplate may be used. In the present invention, it is preferred to evaluate the inhibitory activity of a compound using a binding-measuring system in which adhesion between a chimera protein of VLA-4-immunoglobulin (VLA-4-IgG chimera protein) and CS-1 peptide (Japanese Patent Application No. H9-234544), but the method is not restricted thereto. The “VLA-4-IgG chimera protein” herein means the heterodimer complex of the chimera protein between α4 of VLA-4 and immunoglobulin (hereinafter referred to as “VLAα4-IgG chimera protein”) and a chimera protein between β1 of VLA-4 and immunoglobulin (hereinafter referred to as “VLAβ1-IgG chimera protein”). As the immunoglobulin, although heavy chain or light chain of IgG, IgM or the like may be used, IgG1 heavy chain is used in the present invention. When testing the inhibitory effect of a compound, it is preferred to mix VLA-4-IgG chimera protein and the test compound previously.
In accordance with the teaching of a report (Humphrise, M. J. et al. J.Bio.Chem.,262,6886-6892(1987)), a conjugate between a peptide (Gys Leu His Gly Pro Glu Glu Ile Leu Asp Val Pro Ser Thr) containing CS-1 sequence and rabbit IgG (Sigma) was prepared. This was diluted with phosphate buffer (hereinafter referred to as “PBS(−)” for short), and the obtained solution was placed in the wells of a 96-well immunoplate (NUNC) in an amount of 100 μl/well, followed by leaving to stand the immunoplate at 4° C. for 16 hours to immobilize the conjugate.
The wells were then washed twice with PBS(−), and 1% BSA solution in PBS, which BSA was heated at 80° C. for 10 minutes, was placed in each well in an amount of 300 μl/well. The immunoplate was left to stand at 4° C. for 3 hours, and then the solution in each well was removed by suction.
Each compound and VLA-4-IgG chimera protein (100 μl) were preliminarily reacted at room temperature for 20 minutes, and then the resulting mixture was allowed to react with the CS-1peptide in each well at 30° C. for 3 hours. Thereafter, non-bound VLA-4-IgG chimera protein was removed by suction, and each well was washed twice with 0.1% BSA-containing TBS buffer (150 mM NaCl, 25 mM Tris-HCl, 1 mM MnCl2, PH7.4). To the bound VLA-4-IgG chimera protein, biotin-labelled anti-human IgG antibody (Vector) as a primary antibody was added, and then avidin-labelled horse radish peroxidase (Sigma) as a secondary antibody was added, thereby allowing the reactions. Then o-phenylenediamine as a substrate was added to color the reaction solution, and the absorbance at 490 nm was measured. From this absorbance, the binding inhibitory activity of each compound was determined.

Chain of VLA-4-IgG chimera protein (P13612 with tags, fused parts or gaps limits assumed): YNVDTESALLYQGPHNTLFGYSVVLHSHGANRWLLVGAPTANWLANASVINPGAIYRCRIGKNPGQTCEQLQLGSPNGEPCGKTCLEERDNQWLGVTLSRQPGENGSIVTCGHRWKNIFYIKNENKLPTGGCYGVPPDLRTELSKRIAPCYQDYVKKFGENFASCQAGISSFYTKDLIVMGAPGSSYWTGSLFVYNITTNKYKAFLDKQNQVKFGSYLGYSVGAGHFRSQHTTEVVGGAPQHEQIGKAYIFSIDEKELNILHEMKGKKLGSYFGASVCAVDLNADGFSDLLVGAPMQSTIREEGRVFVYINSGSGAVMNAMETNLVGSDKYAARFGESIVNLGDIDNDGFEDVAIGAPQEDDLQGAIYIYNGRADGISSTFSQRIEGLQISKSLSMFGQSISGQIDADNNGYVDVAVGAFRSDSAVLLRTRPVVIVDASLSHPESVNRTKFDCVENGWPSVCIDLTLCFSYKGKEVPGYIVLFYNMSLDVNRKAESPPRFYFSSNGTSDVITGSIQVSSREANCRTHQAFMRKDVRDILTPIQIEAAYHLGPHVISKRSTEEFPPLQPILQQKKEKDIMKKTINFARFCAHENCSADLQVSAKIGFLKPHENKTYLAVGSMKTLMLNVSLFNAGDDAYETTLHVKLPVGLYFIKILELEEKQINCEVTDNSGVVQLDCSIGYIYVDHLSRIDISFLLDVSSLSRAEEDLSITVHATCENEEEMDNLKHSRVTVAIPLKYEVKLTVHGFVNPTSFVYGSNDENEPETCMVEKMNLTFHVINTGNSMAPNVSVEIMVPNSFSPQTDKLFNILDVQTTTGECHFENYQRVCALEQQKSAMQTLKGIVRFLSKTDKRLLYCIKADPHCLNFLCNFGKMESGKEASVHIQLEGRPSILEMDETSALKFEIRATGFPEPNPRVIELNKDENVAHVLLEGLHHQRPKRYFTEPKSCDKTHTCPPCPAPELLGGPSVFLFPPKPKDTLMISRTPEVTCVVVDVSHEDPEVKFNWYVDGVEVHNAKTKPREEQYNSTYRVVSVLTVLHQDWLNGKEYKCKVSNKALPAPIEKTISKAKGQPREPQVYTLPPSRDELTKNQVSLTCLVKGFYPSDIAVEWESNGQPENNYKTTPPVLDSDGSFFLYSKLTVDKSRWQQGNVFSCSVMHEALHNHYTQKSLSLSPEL
Chain of VLA-4-IgG chimera protein (P05556 with tags, fused parts or gaps limits assumed): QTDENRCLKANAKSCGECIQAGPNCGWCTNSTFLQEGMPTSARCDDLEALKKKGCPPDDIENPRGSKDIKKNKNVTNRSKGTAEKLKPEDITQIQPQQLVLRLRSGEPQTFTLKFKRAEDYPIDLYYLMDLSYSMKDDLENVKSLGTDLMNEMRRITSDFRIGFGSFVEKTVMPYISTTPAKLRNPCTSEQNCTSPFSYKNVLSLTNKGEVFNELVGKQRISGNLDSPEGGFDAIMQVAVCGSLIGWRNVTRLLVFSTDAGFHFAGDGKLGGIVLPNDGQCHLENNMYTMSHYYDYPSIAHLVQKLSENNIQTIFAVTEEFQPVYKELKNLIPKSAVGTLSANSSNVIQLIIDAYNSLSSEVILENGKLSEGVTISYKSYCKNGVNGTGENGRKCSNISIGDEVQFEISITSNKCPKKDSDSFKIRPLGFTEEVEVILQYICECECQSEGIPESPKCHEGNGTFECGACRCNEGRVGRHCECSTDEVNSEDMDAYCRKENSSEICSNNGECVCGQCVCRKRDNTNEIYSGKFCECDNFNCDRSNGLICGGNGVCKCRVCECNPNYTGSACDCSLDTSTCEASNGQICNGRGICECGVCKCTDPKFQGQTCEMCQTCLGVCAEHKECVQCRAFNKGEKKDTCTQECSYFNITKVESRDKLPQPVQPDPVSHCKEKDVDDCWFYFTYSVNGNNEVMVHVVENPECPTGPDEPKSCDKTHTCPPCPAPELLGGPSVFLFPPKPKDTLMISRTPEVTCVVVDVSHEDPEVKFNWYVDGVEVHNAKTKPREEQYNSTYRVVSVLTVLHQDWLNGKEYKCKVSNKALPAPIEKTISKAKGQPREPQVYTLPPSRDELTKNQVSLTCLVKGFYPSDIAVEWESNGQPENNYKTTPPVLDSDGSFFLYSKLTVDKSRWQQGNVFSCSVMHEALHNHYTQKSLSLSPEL

Point of comparison: `COc1cccc(OC)c1C(=O)N[C@@H](CNC(=O)N1CCC2(CC1)C(=O)N(Cc1ccccc1)CN2c1ccccc1)C(=O)O` [Compound 7, 2-((2,6-dimethoxyphenyl)carbonylamino)-3-((2,4,8-triaza-1-oxo-4-phenyl-2-benzylspiro[4.5]dec-8-yl)carbonylamino)propanoic acid], IC50 18 nM. Against it:
- O=C(N[C@@H](CNC(=O)N1CCC2(CC1)C(=O)NCN2c1ccccc1)C(=O)O)c1c(Cl)cccc1Cl [Compound 3, 3-((2,4,8-triaza-1-oxo-4-phenylspiro[4.5]dec-8-yl)carbonylamino)-2-((2,6-dichlorophenyl)carbonylamino)propanoic acid] — 3-fold lower, 6.1 nM
- Cc1cccc(C)c1C(=O)N[C@@H](CNC(=O)N1CCC2(CC1)C(=O)N(Cc1ccccc1)CN2c1ccccc1)C(=O)O [Compound 13, 2-((2,6-dimethylphenyl)carbonylamino)-3-((2,4,8-triaza-1-oxo-4-phenyl-2-benzylspiro[4.5]dec-8-yl)carbonylamino)propanoic acid] — 6.2-fold lower, 2.9 nM
- CC(C)C(=O)NC1(c2ccccc2)CCN(C(=O)N[C@@H](CNC(=O)N2CCC3(CC2)C(=O)N(Cc2ccccc2)CN3c2ccccc2)C(=O)O)CC1 [Compound 27] — 8.6-fold lower, 2.1 nM
- O=C(O)[C@H](CNC(=O)N1CCC2(CC1)C(=O)N(Cc1ccccc1)CN2c1ccccc1)NC(=O)N1CCC(n2c(=O)[nH]c3ccccc32)CC1 [Compound 31, 2-((4-(2-oxo(3-hydrobenzimidazolyl))piperidyl)carbonylamino)-3-((2,4,8-triaza-1-oxo-4-phenyl-2-benzylspiro[4.5]dec-8-yl)carbonylamino)propanoic acid] — 18-fold lower, 0.98 nM
